Where “and” joins values, the source holds several entries; their conditions need not be identical. Equal values may be shown once. Read-outs that look alike come from different tables or passages of the source.
What was measured:
[1] = test system: rat liver microsomal systems; parameters: method as in PMID 3514778; conditions: rat liver microsomes fortified with cyanide, 2 h; cited from earlier work
[2] = biological target: T1, human P450 51A1 (Homo sapiens, UniProt Q16850); assay: Spectral (difference spectroscopy) Kd estimates of P450 51A1-sterol complexes; format: binding; parameters: made in house; host or cells: Escherichia coli
T1 sequence (Q16850 1-509): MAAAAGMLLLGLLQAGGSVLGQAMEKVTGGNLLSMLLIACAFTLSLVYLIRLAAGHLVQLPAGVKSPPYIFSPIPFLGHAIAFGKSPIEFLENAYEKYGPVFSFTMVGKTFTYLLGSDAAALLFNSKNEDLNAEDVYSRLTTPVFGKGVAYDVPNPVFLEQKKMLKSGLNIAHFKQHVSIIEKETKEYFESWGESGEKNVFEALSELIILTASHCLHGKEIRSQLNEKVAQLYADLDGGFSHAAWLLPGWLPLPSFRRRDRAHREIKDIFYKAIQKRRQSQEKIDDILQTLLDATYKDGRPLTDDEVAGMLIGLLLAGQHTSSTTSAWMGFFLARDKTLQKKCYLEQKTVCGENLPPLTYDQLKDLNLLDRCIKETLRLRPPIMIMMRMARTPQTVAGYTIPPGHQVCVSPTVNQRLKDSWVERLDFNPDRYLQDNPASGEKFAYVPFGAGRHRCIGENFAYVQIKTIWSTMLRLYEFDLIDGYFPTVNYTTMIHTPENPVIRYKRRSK
Description: Kd values were estimated by difference spectroscopy. P450 51A1 (1.0 μM) was in each of two glass cuvettes (in 100 mM potassium phosphate buffer, pH 7.4) and a baseline was recorded (OLIS-Amino DW2a). Aliquots of a solution of each sterol–HPCD complex were added to the sample cuvette and an equivalent amount of HPCD was added to the reference cuvette, and spectra were recorded. The time between the collection of individual spectra was ∼3 min. The maximum absorbance difference (usually ΔA390-A418) was plotted versus the nominal concentration of added sterol, and the data were fit to hyperbolae in GraphPad Prism software (GraphPad, https://www.graphpad.com), using a quadratic equation to correct the ligand concentration for the enzyme-bound concentration (used as Y=B+(A/2)∗(1/E)∗((Kd+E+X)-sqrt((Kd + E+X)^∧2-(4∗E∗X)) in Prism software). The linear regression fits include the internal error estimates (SE).

[3] = biological target: T1, human P450 51A1; assay: Stopped-flow koff measurements of P450 51A1-sterol complexes with ketoconazole trap; format: binding; parameters: made in house; host or cells: Escherichia coli; conditions: 23 °C, 10 μM ketoconazole trap, 1 μM P450 51A1
Description: All assays were done at 23 °C in an OLIS-RSM 1000 stopped-flow spectrophotometer, collecting data every 1 ms over a range of 332 to 565 nm with slit widths of 1.24 mm (8 nm bandpass) and gratings with 400 lines/mm and 500 nm blaze. One syringe contained 20 μM ketoconazole dissolved in 100 mM potassium phosphate buffer (pH 7.4). In a preliminary experiment in which this was mixed with an equal volume of 2 μM P450 51A1 (same buffer), the observed rate of binding (ΔA430) was 25 s^−1.
P450 51A1 (2 μM) was premixed with an equivalent concentration of each of the sterols (in HPCD). Each of these solutions was placed in a drive syringe and rapidly mixed with 20 μM ketoconazole (yielding final concentrations of 1 μM P450 51A1 and 10 μM ketoconazole). The rate of the ΔA430-A390 change was used as the koff rate, that is, the rate at which the sterol left the P450 and allowed it to bind to the trap ligand ketoconazole.

[4] = Estimation of Kd for HPCD-dihydrolanosterol complex (OD450 light scattering); format: physicochemical; conditions: pH 7.4, 2% C2H5OH, 23 °C, 16 h; two assays
[5] = 1.0 μM P450 51A1, quadratic fit
[6] = 1.0 μM P450 51A1, quadratic fit, read-out: Kd

Compound | accumulation, yield [1] | Kd [2, 5] | Kd [2, 6] | koff [3] | Kd [4] | Kd [2]
CC(C)CCCC(C)[C@H]1CC[C@@]2(CO)C3=C(CC[C@]12C)[C@@]1(C)CC[C@H](O)C(C)(C)C1CC3 (stereo partly drawn) [14α-CH2OH dihydrolanosterol, 24,25-dihydro-14α-CH2OH lanosterol] | ~3% | sub-μM | 0.02 ± 0.04 µM | 0.022 ± 0.001 s⁻¹ | – | –
CC(C)CCCC(C)[C@H]1CC[C@@]2(C=O)C3=C(CC[C@]12C)[C@@]1(C)CC[C@H](O)C(C)(C)C1CC3 (stereo partly drawn) [14α-CHO dihydrolanosterol, 24,25-dihydro-14α-formyl lanosterol] | ~3% | sub-μM | 0.12 ± 0.03 µM | 0.059 ± 0.001 s⁻¹ | – | –
CC(C)CCCC(C)[C@H]1CC[C@@]2(C)C3=C(CC[C@]12C)[C@@]1(C)CC[C@H](O)C(C)(C)C1CC3 (stereo partly drawn) [dihydrolanosterol, 24,25-dihydrolanosterol] | – | sub-μM | – | 0.054 ± 0.01 s⁻¹ | 6400 µM and 6800 µM | 0.23 ± 0.1 µM

Source: paper PMC10285260, “Processive kinetics in the three-step lanosterol 14α-demethylation reaction catalyzed by human cytochrome P450 51A1” (The Journal of Biological Chemistry, 2023)
